Assay results as given in US12582616B2, “Molecular targets for modulation of dissociative and associative states” (The Board of Trustees of the Leland Stanford Junior …, priority 2020, dated 2026).
“Also recorded” adds a separate entry of the source.

Assays:
[1] = tested on: retrosplenial cortex (RSP); assay: Widefield imaging of cortical activity in GCaMP6s mice; details: i.p. injection, ketamine 50 mg/kg
Description: We recorded multiregional neuronal activity by leveraging widefield microscopy, a cleared skull preparation, and atlas registration in GCaMP6s-expressing mice (FIGS. 1A-1C)^6,8,15.
As described^8, mice were anesthetized with isoflurane, the scalp was removed, the skull cleaned and dried, and a custom head-plate was cemented to contacts over the cerebellum and in front of the olfactory bulb. The skull was then covered in a thin layer of cyanoacrylate glue (Apollo 2000, Cyberbond), clear dental acrylic (Ortho-Jet, Lang Dental), and clear nail polish (Electron Microscopy Services). […] (0.1 mg/kg) was injected subcutaneously for pain management. […] Imaging was performed on a custom-built fluorescence microscope designed for high light collection efficiency and large field of view. […] Alternating 410 nm and 488 nm illumination for non-Ca^2+ dependent artifact removal was controlled using a microcontroller (Arduino) slaved to the frame output trigger of the camera.
Analysis was performed using custom MATLAB (MathWorks) scripts. Widefield imaging videos were registered to a 2D top-projection atlas generated from the annotated Allen Brain Atlas volume, version CCFv2, in MATLAB (MathWorks), using an affine transformation computed from four manually selected control points. Each video was DF/F normalized, using the median for each pixel over the entire time series as F. The 410 nm channel was then temporally smoothed using a moving average (width=400 ms). The smoothed 410 nm DF/F signal for each pixel was regressed onto the 488 nm DF/F signal for the corresponding pixel, and the regression coefficients were used to scale the 410 nm channel to the 488 nm channel. This scaled 410 nm DF/F signal was then subtracted from the 488 nm DF/F signal to produce a normalized signal for each pixel. For quantification, activity traces were extracted from points centered in five cortical regions (visual, somatosensory, parietal, motor, retrosplenial) on the left hemisphere of the brain. The video data was Gaussian smoothed spatially (radius=2 pixels).
Each trace (corresponding to either a fiber photometry signal, a cellular two-photon signal, a widefield regional centroid, a widefield pixel, an sEEG trace, or a smoothed spike rate Neuropixels trace) was z-scored, and the power spectral density (PSD) was then estimated using Welch's method (pwelch( ) in Matlab), with a window size of 10*fs (15*fs for human sEEG) where fs is the sampling rate of the signal. The average band power within a specified band (i.e. 1-3 Hz) was then computed by integrating the PSD estimate (bandpower in Matlab). […] Unless otherwise indicated, the PSD was computed across the time window from minutes 10 to 11 post-injection.

mice [2] = assay: Open field test; format: in vivo, mouse; details: 5 min session, compared with saline
Description: Open Field Test: Mice were placed in an evenly illuminated 50 cm×50 cm open field test box. Mouse position was captured using a webcam and Viewer software (Biobserve).

mice [3] = assay: Hot plate test; details: for dissociation-like behavior (sensory-detection vs affective responses), hot plate: other drug classes
Description: Hot Plate Test: Mice were placed on the hot plate (Bioseb), which was set to 55° C. and surrounded by a clear circular perimeter. Mouse activity was recorded using two cameras from different angles. The experiment ended when the mouse jumped to escape or 90 seconds had elapsed. Care was taken to clean and dry the hot plate apparatus between animals. For optogenetic experiments, mice were connected to patch cords and then returned to a holding cage. Illumination began 30 seconds before mice were placed on the hot plate.

mice [4] = assay: Tail suspension test; format: in vivo, mouse; details: PCP 5 mg/kg
Description: Tail Suspension Test: Mouse activity was recorded using a 60 Hz web camera. Struggling activity was quantified for minutes 2-10. […] Illumination began 30 seconds before tails were secured with tape and suspended from the beam. Mice were excluded if they climbed on their own tails.

Compound	1-3 Hz oscillation localized to retrosplenial cortex (RSP), widefield imaging [1]	open-field locomotion velocity (mice [2])	dissociation-like behavior (sensory-detection vs affective responses), hot plate (mice [3])	longer-timescale escape and social behaviors (mice [4])	responsivity to salient stimuli (time-to-jump, rearing/socialization) (mice [3]; LSD 0.3 mg/kg)
CC12CC3CC(C)(C1)CC(N)(C3)C2 [memantine]	did not elicit oscillation	–	–	–	–
CN1C(=O)CN=C(c2ccccc2)c2cc(Cl)ccc21 [diazepam]	Neither the GABAergic sedative diazepam nor the centrally-acting opioid-analgesic buprenorphine elicited the rhythm	decreased velocity	did not recapitulate dissociative-like behavior	–	–
c1ccc(C2(N3CCCCC3)CCCCC2)cc1 [PCP, phencyclidine]	induced the RSP-localized oscillation	locomotion velocity was unchanged	recapitulated ketamine's behavioral disconnection between sensory-detection and affective responses	inhibited longer-timescale escape and social behaviors	–
(+)-Lysergic acid diethylamide (+)-tartrate (2:1) [LSD]	did not elicit oscillation	reducing locomotion in the stimulus-poor open-field; also recorded: decreased velocity	disrupted neither sensory-detection nor affective responses	–	tended to increase responsivity to salient stimuli
CC(C)c1cccc(C(C)C)c1O [propofol]	elicited waves of cortical activity without RSP restriction	–	–	–	–
C[C@]12N[C@H](Cc3ccccc31)c1ccccc12 [MK-801]	induced the RSP-localized oscillation	–	–	–	–
Cc1cccc([C@H](C)c2cnc[nH]2)c1C [dexmedetomidine]	elicited waves of cortical activity without RSP restriction	–	–	–	–
